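Assay format: 96-well plates, 48-hour exposure. GI50 = concentration required for 50% inhibition of growth.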 Active and inactive are the calls of the source. Cut-off read from the data, not from the text of the source: active = GI50 up to about 1.1 µM and inactive = higher.
Experiments:
Assay in all cases: DTP human tumour cell line panel, 48 h
TK-10 = system: TK-10
A549 = system: A549
SK-OV-3 = system: SK-OV-3
K562 = system: K562
SW-620 = system: SW-620
NCI-H226 = system: NCI-H226
Malme-3M = system: Malme-3M
T47D = system: T47D
HOP-92 = system: HOP-92
CAKI-1 = system: CAKI-1
SF-295 = system: SF-295
SK-MEL-28 = system: SK-MEL-28
HOP-62 = system: HOP-62
COLO 205 = system: COLO 205
OVCAR-3 = system: OVCAR-3
NCI-H460 = system: NCI-H460
UACC-257 = system: UACC-257
OVCAR-5 = system: OVCAR-5
SF-539 = system: SF-539
RPMI-8226 = system: RPMI-8226
RXF 393 = system: RXF 393
Hs-578T = system: Hs-578T
HCT-15 = system: HCT-15
SR = system: SR
MDA-MB-435 = system: MDA-MB-435
SK-MEL-5 = system: SK-MEL-5
SNB-75 = system: SNB-75
OVCAR-4 = system: OVCAR-4
HCT-116 = system: HCT-116
MCF7 = system: MCF7
HT-29 = system: HT-29
SK-MEL-2 = system: SK-MEL-2
A498 = system: A498
PC-3 = system: PC-3
UO-31 = system: UO-31
MDA-N = system: MDA-N
EKVX = system: EKVX
KM12 = system: KM12
OVCAR-8 = system: OVCAR-8
IGROV-1 = system: IGROV-1
U-251 = system: U-251
UACC-62 = system: UACC-62
MOLT-4 = system: MOLT-4
SN12C = system: SN12C
ACHN = system: ACHN
786-0 = system: 786-0
NCI/ADR-RES = system: NCI/ADR-RES
NCI-H23 = system: NCI-H23
SNB-19 = system: SNB-19
BT-549 = system: BT-549
M14 = system: M14
NCI-H522 = system: NCI-H522
SF-268 = system: SF-268
LOX IMVI = system: LOX IMVI
MDA-MB-231 = system: MDA-MB-231

Measured: GI50

c1ccc(CCc2cccnc2)nc1
> 100 µM: HCT-15
inactive: TK-10 > 100 µM | A549 > 100 µM | SK-OV-3 > 100 µM | K562 52.4 µM | SW-620 > 100 µM | NCI-H226 > 100 µM | Malme-3M > 100 µM | T47D > 100 µM | HOP-92 > 100 µM | CAKI-1 > 100 µM | SF-295 > 100 µM | SK-MEL-28 > 100 µM | HOP-62 > 100 µM | COLO 205 > 100 µM | OVCAR-3 > 100 µM | NCI-H460 > 100 µM | UACC-257 > 100 µM | OVCAR-5 > 100 µM | SF-539 > 100 µM | RPMI-8226 > 100 µM | RXF 393 > 100 µM | Hs-578T > 100 µM | SR > 100 µM | MDA-MB-435 > 100 µM | SK-MEL-5 > 100 µM | SNB-75 > 100 µM | OVCAR-4 > 100 µM | HCT-116 > 100 µM | MCF7 > 100 µM | HT-29 > 100 µM | SK-MEL-2 > 100 µM | A498 > 100 µM | PC-3 > 100 µM | UO-31 > 100 µM | MDA-N > 100 µM | EKVX > 100 µM | KM12 > 100 µM | OVCAR-8 > 100 µM | IGROV-1 > 100 µM | U-251 > 100 µM | UACC-62 > 100 µM | MOLT-4 > 100 µM | SN12C > 100 µM | ACHN > 100 µM | 786-0 > 100 µM | NCI/ADR-RES > 100 µM | NCI-H23 > 100 µM | SNB-19 > 100 µM | BT-549 > 100 µM | M14 > 100 µM | NCI-H522 45.7 µM | SF-268 > 100 µM | LOX IMVI > 100 µM | MDA-MB-231 > 100 µM
